Results reported in patent US20200383327A1, “METHOD OF IMPROVING PLANT PERFORMANCE” (The State of Israel, Ministry of Agriculture & Rural …, priority 2018, published 2020).
Entries after “also recorded” stand apart in the source; their conditions may differ.

Tests used:
Format in all cases: in vivo
[1] = test system: Oidiopsis sicula; test: Oidiopsis powdery mildew on tomato plants; details: 4 mM Phe solution, drench or spray, each treatment; 24 days after treatment; FIG. 12
Protocol: FIG. 12 is a bar graph showing the effect of 4 mM Phe solution on the severity of Oidiopsis sicula powdery mildew on tomato plants. The Phe solution was applied by spraying and by drench on the tomato plants at 3 days before and 4 hours before incubation in the greenhouse Incidence of Oidiopsis powdery mildew was evaluated 24 days after treatment.
Conidia of Oidiopsis sicula were collected from leaves of a diseased plant, suspended in water and sprayed on the tomato plants. The plants were kept in a greenhouse with 18-28° C. Disease severity of Oidiopsis powdery mildew was evaluated on a scale of 0-100% where 100=all leaves covered by disease symptoms.

[2] = test system: Tomato yellow leaf curl virus (TYLCV); test: Tomato yellow leaf curl virus severity on tomato plants; details: 4 mM Phe solution, spray and drench to root zone; AUDPC during 51 days; FIG. 13
Protocol: FIG. 13 is a bar graph showing the effect of 4 mM solution on the severity of Tomato yellow leaf curl virus (TYLCV) on leaves of tomato plants. The Phe solution was applied by spraying and by drench on the tomato plants at 3 days before and 4 hours before incubation in the greenhouse close to TYLCV infected tomato plants. Infection was natural by the vector insect silverleaf white fly. Disease severity was evaluated on a scale of 0-100% severity of symptoms coverage during 51 days after treatment and it is expressed as the area under disease progress curve (AUDPC).
The effect of Phe on TYLCV Begomovirus on tomato plants was assessed. Tomato yellow leaf curl virus (TYLCV) is a DNA virus from the genus Begomovirus. The virus is transmitted by an insect vector the whitefly Bemisia tabaci, (silverleaf whitefly; sweet potato whitefly from the family Aleyrodidae). Plants infected are tomato and also eggplant, potato, tobacco, bean, and pepper. Virus infection causes stunting, reduction of leaf size, upward cupping/curling of leaves, chlorosis on leaves and flowers, and reduction of fruit production.

[3] = test system: Alternaria alternata; test: Postharvest decay of 'Ettinger' avocado fruit, wound inoculated; details: 4 mM phenylalanine, FIG. 5
Protocol: FIGS. 5A-5B are a graph and a photograph showing induced resistance of harvested Avocado fruit to fungal pathogens. FIG. […] A day after dipping the treated or untreated fruits were wound inoculated on four spots in each fruit with 7 μl of Alternaria alternata conidia suspension (10^6 conidia/ml) and the decay area was monitored for 6 days post inoculation (dpi). FIG. 5B is representative pictures of inoculated fruits of control and treatments with 4 mM phenylalanine, 6 days post inoculation.

[4] = Mango fruit decay in cold storage after post-harvest treatment
Protocol: (§1) FIGS. 19A-19G are images and graphs showing the effect of Phe solution on fruit post-harvest rotting under cold temperature resistance. (19A-19B) are images showing post-harvest control and treated mango fruits, respectively, stored in 7° C. […] (19C-19D) are vertical bar graphs showing indices of spots (19C) and pitting (19D) of mango fruits infected by Colletotrichum or Lasiodiplodia under 7° C. (19E-19G) are vertical bar graph showing […] decay was shown at 7° C., and side decay and total decay were shown at 7° C. and 10° C.
(§2) Mango fruits were treated with Phe solution post-harvest. Fruits were stored in either 7° C. or 10° C., and decay was inspected and documented. Post-harvest treatment as described hereinabove reduced stem decay, side decay, and total decay (FIGS. 19E-19G). […] Fruits were both treated with AAA and infested with […] post-harvest. […] (FIGS. 19C-19D).

[5] = test system: Colletotrichum; test: Spots and pitting of infected mango fruits under 7° C.; details: post-harvest treated and infested mango
Protocol: as §1, §2

[6] = test system: Lasiodiplodia; test: as above; details: post-harvest treated and infested mango
Protocol: as §1, §2

[7] = Plant growth performance parameters after pre-harvest treatment
Protocol: FIGS. 20A-20I are images and graphs showing the effects of Phe solution on plant growth performance parameters. (20A) is images of plants treated with 2 mM once or twice, once with 4 mM or non-treated (control). (20B-20C) are bar graphs showing plant height (20B) and the % increase in the plant height (20C) in treated and control plants. (20D-20E) are bar graphs showing the number of nodes per plant (20D) and the % increase in the number of nodes (20E) in treated and control plants. (20F-20G) are bar graphs showing the % increase in leaf length (20F) and the % increase in the leaf area (20G) in treated and control plants. (20H-20I) are bar graphs showing plant fresh (e.g., “wet”) weight […] and plant dry weight (20I) in treated and control plants.
Plant were treated with Phe solution pre-harvest, and growth performance parameters, including total height, total weight (“wet” and dry), number of nodes, leaf length, and leaf area were examined.

[8] = Number of flowers and stigmas of Petunia plants
Protocol: FIGS. 22A-22C are vertical bar graphs showing the effect of Phe solution on the number of flowers per plant. Petunia plants were treated once a week for 5 weeks with Phe solution (2 mM, 6 mM, 15 mM, 35 mM, or none, i.e., control). Numbers of flowers were counted and documented over a period of 7 weeks for Petunia ‘easy-rider’ strain (FIG. 22A) and Petunia ‘white dreams’ strain (FIG. 22B).

[9] = Plant crop production (fruits)
Protocol: FIGS. 21A-21D are bar graphs showing the effects of 1-4 mM solution on plant crop production (e.g., fruits). Plants were treated with 2 mM once or twice, once with 4 mM or non-treated (control). (21A) is a graph showing the cumulative weight of fruits per plant. (21B) is a graph showing the number of fruits per plant. (21C) is a graph showing the average weight of a fruit. (21D) is a graph showing the number of young fruits, e.g., “set fruit”.

In the case of `N[C@@H](Cc1ccccc1)C(=O)O` [Phe, Phenylalanine], the “Severity of Oidiopsis powdery mildew on tomato leaves” value [1] is reported as “significantly suppressed”, the “Severity of Tomato yellow leaf curl virus on tomato plants canopy” value [2] is reported as “significantly suppressed” and the “Decay severity in comparison to the untreated control fruits” value [3] is reported as “reduced the decay severity”. For the same compound, the Stem decay ([4]; post-harvest Phe solution, mango stored at 7° C. or 10° C., FIG. 19E) was “reduced”, the Side decay ([4]; post-harvest Phe solution, mango stored at 7° C. or 10° C., FIG. 19F) was “reduced” and the Total decay ([4]; post-harvest Phe solution, mango stored at 7° C. or 10° C., FIG. 19G) was “reduced”. For the same compound, the “Black spots on fruits, control versus treated” value ([4]; post-harvest mango fruits stored in 7° C., FIGS. 19A-19B) was “Control fruits were shown to have substantially more black spots”, the “Levels of black spots” value ([5]; FIG. 19C) was “substantially reduced levels” and the Levels of pitting ([5]; FIG. 19D) was “substantially reduced levels”. For the same compound, the “Levels of black spots” value ([6]; FIG. 19C) was “substantially reduced levels”, the Levels of pitting ([6]; FIG. 19D) was “substantially reduced levels” and the Plant height ([7]; 2 mM or 4 mM of Phe vs control, FIGS. 20A-20C) was “significantly higher than control”. The “Final weight at harvest, total "wet" weight” value ([7]; Phe treated vs control, FIG. 20H) was “significantly greater than control”, the “Final weight at harvest, total dry biomass” value ([7]; Phe treated vs control, FIG. 20I) was “significantly greater than control” and the “Number of nodes on the plant's stem” value ([7]; Phe treated vs control, FIGS. 20D-20E) was “increase in height was also correlated with the number of nodes”. The Leaf length ([7]; control compared to plants treated with 4 mM Phe) was “control plants had significantly shorter leaves”, the Leaf area ([7]; control compared to plants treated with Phe, 2 mM or 4 mM once a week) was “reduced leaf area compared to those of plants treated with Phe” and the Number of flowers ([8]; Phe solution once a week for 5 weeks vs control, FIGS. 22A-22B) was “more flowers”. The Number of stigmas ([8]; Phe solution vs control, FIG. 22C) was “more flowers and stigmas; also recorded: more stigmas compared to control”, the “Number of young fruits (set fruit)” value ([9]; 4 mM-treated plants vs control, FIG. 21D) was “greater number of young fruits” and the “Total crop yielded (fruits)” value ([9]; Phe solution vs control) was “significantly increased the total crop yielded”. For the same compound, the Cumulative fruit weight ([9]; Phe treated vs control) was “significantly greater cumulative fruit weight”, the Number of fruits ([9]; Phe treated vs control) was “comparable amount” and the “Average weight per fruit” value ([9]; Phe treated vs control, FIG. 21C) was “significantly greater average weight per fruit”.
